Measurements: patent publication US12370232B2, “Use of polyphenol containing sugar cane extracts for preventing, improving or treating a skin condition” (priority 2017, dated 2025)
Several values for one entry are separate records, joined by “and”; a condition that tells them apart may be missing. Identical values can stand only once. Like-named read-outs stand apart in the source and are kept apart here. Where a SMILES comes first, the peptide text is derived from it. The star is where a group is joined. MeOSuc = COC(=O)CCC(=O)*; CH2Cl = ClC*

Experiments:
collagenase = test: Collagenase inhibition assay; format: biochemical
Experimental: A collagenase inhibition assay was performed to determine the collagenase inhibition of an extract derived from sugar cane of the present disclosure. Two batches (replicate 1 and replicate 2) of an extract derived from sugar cane of the present disclosure in a concentration of from 0.17 mg/mL to 350 mg/mL were tested for the ability to inhibit collagenase.
To measure collagenase inhibition potential of an extract derived from sugar cane of the present disclosure, a test sample of an extract derived from sugar cane was mixed sequentially with type-I collagen substrate and a diluted collagenase enzyme solution. After incubation for 30 minutes at 37° C., fluorescence was measured at excitation maxima of 495 nm and emission maxima of 515 nm. The inhibition percentage was calculated as follows.
[formula] Wherein, • Abssample=absorbance of the sample test, • Absblank=absorbance of the sample blank, • Abspositive control=absorbance of the positive control, and • Absnegative control=absorbance of the negative control.
1,10-phenanthroline was used as a positive assay control. Two batches (replicate 1 and replicate 2) of 1,10-phenanthroline in a concentration of from 1.7 μM to 3500 μM were used in the positive control assay. A negative control was performed with a buffer and a collagen substrate but without collagenase enzyme.

telomerase = biological target: T1, telomerase (Homo sapiens, UniProt O14746); test: Cellular telomerase activity assay (TRAP); format: cell-based; parameters: Telomerase activity Replicate 1 / Telomerase activity Replicate 2 / Telomerase activity Average: unit not given here
T1 construct: endogenous in cells
Excerpt: A cellular telomerase activity assay determines the ability of a test material to stimulate telomerase activity in human cells, which translates to the material's anti-aging potential. […]
In the cellular telomerase activity assay, telomerase activity level of human cells treated with (and without) a test sample of an extract derived from sugar cane of the present disclosure was monitored. Specifically, a telomeric repeat amplification protocol (TRAP assay) was used for the assay. The TRAP assay was divided into three main steps: extension, amplification, and detection of telomerase products. In the extension phase, telomeric sequences were added to the telomerase substrate, a non-telomeric oligonucleotide, through the action of telomerase present in the cell extract. The products of the extension step were amplified by PCR using specific primers and finally were analyzed via electrophoresis.
Cycloastragenol, a known telomerase activator, was used as an assay control. Two batches (replicate 1 and replicate 2) of cycloastragenol in a concentration from 0.06 μM to 3 μM were used in the control assay.

elastase = biological target: T2, elastase (Homo sapiens, UniProt P08246); test: Elastase inhibition assay; format: biochemical
T2 sequence (P08246 30-247): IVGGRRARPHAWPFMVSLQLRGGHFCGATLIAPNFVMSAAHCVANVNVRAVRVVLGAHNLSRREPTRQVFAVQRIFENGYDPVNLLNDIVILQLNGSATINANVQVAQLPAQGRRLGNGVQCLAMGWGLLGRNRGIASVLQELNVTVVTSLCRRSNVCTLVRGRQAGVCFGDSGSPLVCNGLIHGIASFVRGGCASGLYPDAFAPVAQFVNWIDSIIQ
Experimental: An elastase inhibition assay was performed to determine the elastase inhibition potential of an extract derived from sugar cane of the present disclosure. […] To measure elastase inhibitory potential of an extract derived from sugar cane of the present disclosure, a test sample of an extract derived from sugar cane was mixed and incubated with N-methoxysuccinyl-[…]-chloromethyl ketone in tris-HCl buffer for 15 min. Then elastase was added to the mixture and incubated for 15 min. […] [formula] Wherein, • Abssample+elastase=absorbance of test sample after incubation with elastase, • Abssample-elastase=absorbance of test sample before incubation with elastase, • Absblank+elastase=absorbance of blank after incubation with elastase, and • Absblank-elastase=absorbance of blank before incubation with elastase. N-methoxysuccinyl-[…]-chloromethyl ketone, a human leukocyte elastase (HLE) inhibitor, was used as an assay control.

[1] = test system: melanin production in human skin cells; test: Cellular melanin pigmentation inhibition assay; format: cell-based; settings: for EC50 / inhibition at 10 µM / inhibition at 0.31 µM / inhibition at 0.63 µM / inhibition at 1.25 µM / inhibition at 2.5 µM / inhibition at 5 µM: Homo sapiens
Experimental: A melanin production inhibition assay was performed to determine the potential of an extract derived from sugar cane of the present disclosure to inhibit melanin production.
To measure melanin pigmentation inhibition potential of an extract derived from sugar cane of the present disclosure, a test sample of an extract derived from sugar cane, in combination with theophylline, was added to a pre-incubated human skin cell culture. After incubating for 72 hours, the cells were washed with phosphate-buffered saline (PBS), lysed in 1 M NaOH, and boiled for 5 minutes to solubilize the melanin. The inhibition rates of the lysates were measured at 490 nm and expressed as a percentage relative to the value of the untreated control.
Chloroquine, a known melanin production inhibitor, was used as an assay control. Two batches (replicate 1 and replicate 2) of chloroquine in a concentration from 0.31 μM to 10 μM were used in the control assay.

[2] = read-out: Inhibition (%) Average
[3] = read-out: Inhibition (%) Relicate 1
[4] = read-out: Inhibition (%) Replicate 2
[5] = read-out: Melanin inhibition (%) Average
[6] = read-out: Melanin inhibition (%) Replicate 1
[7] = read-out: Melanin inhibition (%) Replicate 2

T1 sequence (O14746 whole entry): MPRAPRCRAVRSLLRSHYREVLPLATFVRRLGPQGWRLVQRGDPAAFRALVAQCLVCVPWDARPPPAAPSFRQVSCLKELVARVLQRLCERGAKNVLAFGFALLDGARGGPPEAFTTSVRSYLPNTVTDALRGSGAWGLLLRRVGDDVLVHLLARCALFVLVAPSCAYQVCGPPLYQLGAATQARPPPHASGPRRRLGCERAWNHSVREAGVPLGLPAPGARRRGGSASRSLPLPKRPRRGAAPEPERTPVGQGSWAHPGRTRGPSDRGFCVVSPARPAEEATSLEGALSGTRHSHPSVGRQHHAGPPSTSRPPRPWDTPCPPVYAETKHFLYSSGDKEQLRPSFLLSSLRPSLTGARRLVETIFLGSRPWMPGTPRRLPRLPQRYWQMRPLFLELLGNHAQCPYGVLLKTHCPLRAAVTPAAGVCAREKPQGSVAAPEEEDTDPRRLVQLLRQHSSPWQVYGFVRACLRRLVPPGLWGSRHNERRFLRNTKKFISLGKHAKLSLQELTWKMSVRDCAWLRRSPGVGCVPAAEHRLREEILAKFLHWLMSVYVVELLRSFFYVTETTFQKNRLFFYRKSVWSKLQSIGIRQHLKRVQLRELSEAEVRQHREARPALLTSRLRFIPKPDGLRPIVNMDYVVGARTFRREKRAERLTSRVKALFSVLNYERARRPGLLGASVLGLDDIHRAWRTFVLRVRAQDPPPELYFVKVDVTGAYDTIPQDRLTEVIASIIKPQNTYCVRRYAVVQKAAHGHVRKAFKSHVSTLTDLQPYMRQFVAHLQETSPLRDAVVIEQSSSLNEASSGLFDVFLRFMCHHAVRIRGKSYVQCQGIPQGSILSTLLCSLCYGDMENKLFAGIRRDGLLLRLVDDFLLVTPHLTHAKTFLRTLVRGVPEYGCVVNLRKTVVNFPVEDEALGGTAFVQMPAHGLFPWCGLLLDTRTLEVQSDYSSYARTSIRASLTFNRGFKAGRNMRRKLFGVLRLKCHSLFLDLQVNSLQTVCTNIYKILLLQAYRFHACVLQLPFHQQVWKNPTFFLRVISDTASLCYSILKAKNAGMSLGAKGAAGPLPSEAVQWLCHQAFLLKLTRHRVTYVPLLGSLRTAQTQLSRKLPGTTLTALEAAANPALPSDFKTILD

Which results are given for c1cnc2c(c1)ccc1cccnc12 [1,10-phenanthroline]?
Concentration inducing the maximum inhibition (collagenase) (collagenase): 3.50 mM; Inhibition (%) Average (collagenase; 1.71 uM): −29.05%; Inhibition (%) Relicate 1 (collagenase; 1.71 uM): −29.63%; Inhibition (%) Replicate 2 (collagenase; 1.71 uM): −28.47%; Inhibition (%) Average (collagenase; 3.42 uM): −25.76%; Inhibition (%) Relicate 1 (collagenase; 3.42 uM): −27.08%; Inhibition (%) Replicate 2 (collagenase; 3.42 uM): −24.45%; Inhibition (%) Average (collagenase; 6.84 uM): −21.65%; Inhibition (%) Relicate 1 (collagenase; 6.84 uM): −22.85%; Inhibition (%) Replicate 2 (collagenase; 6.84 uM): −20.46%; Inhibition (%) Average (collagenase; 13.67 uM): −6.70%; Inhibition (%) Relicate 1 (collagenase; 13.67 uM): −7.40%; Inhibition (%) Replicate 2 (collagenase; 13.67 uM): −6.00%; Inhibition (%) Average (collagenase; 27.34 uM): 24.95%; Inhibition (%) Relicate 1 (collagenase; 27.34 uM): 25.64%; Inhibition (%) Replicate 2 (collagenase; 27.34 uM): 24.25%; Inhibition (%) Average (collagenase; 54.69 uM): 58.50%; Inhibition (%) Relicate 1 (collagenase; 54.69 uM): 57.26%; Inhibition (%) Replicate 2 (collagenase; 54.69 uM): 59.74%; Inhibition (%) Average (collagenase; 109.38 uM): 71.66%; Inhibition (%) Relicate 1 (collagenase; 109.38 uM): 71.77%; Inhibition (%) Replicate 2 (collagenase; 109.38 uM): 71.54%; Inhibition (%) Average (collagenase; 218.75 uM): 75.46%; Inhibition (%) Relicate 1 (collagenase; 218.75 uM): 75.14%; Inhibition (%) Replicate 2 (collagenase; 218.75 uM): 75.78%; Inhibition (%) Average (collagenase; 437.50 uM): 77.01%; Inhibition (%) Relicate 1 (collagenase; 437.50 uM): 76.63%; Inhibition (%) Replicate 2 (collagenase; 437.50 uM): 77.39%; Inhibition (%) Average (collagenase; 875.00 uM): 77.37%; Inhibition (%) Relicate 1 (collagenase; 875.00 uM): 77.01%; Inhibition (%) Replicate 2 (collagenase; 875.00 uM): 77.72%; Inhibition (%) Average (collagenase; 1750.00 uM): 77.27%; Inhibition (%) Relicate 1 (collagenase; 1750.00 uM): 76.83%; Inhibition (%) Replicate 2 (collagenase; 1750.00 uM): 77.71%; Inhibition (%) Average (collagenase; 3500.00 uM): 78.99%; Inhibition (%) Relicate 1 (collagenase; 3500.00 uM): 79.75%; Inhibition (%) Replicate 2 (collagenase; 3500.00 uM): 78.24%; Maximum inhibition achieved (collagenase) (collagenase; at 3.50 mM): 78.99%; EC50 (collagenase; effective concentration at 50% of maximal inhibition): 26800 nM; EC50 (collagenase inhibition) (collagenase; same value in mass units): (4.84 μg/mL)

What does the source list for CC(C)(O)[C@@H]1CC[C@](C)([C@H]2[C@@H](O)C[C@@]3(C)[C@@H]4C[C@H](O)[C@H]5C(C)(C)[C@@H](O)CC[C@@]56C[C@@]46CC[C@]23C)O1 [Cycloastragenol]?
Telomerase activity Average (telomerase; 0.06 μM): 1387.33; Telomerase activity Replicate 1 (telomerase; 0.06 μM): 925.83; Telomerase activity Replicate 2 (telomerase; 0.06 μM): 1848.83; Telomerase activity Average (telomerase; 0.13 μM): 1916.83; Telomerase activity Replicate 1 (telomerase; 0.13 μM): 2080.83; Telomerase activity Replicate 2 (telomerase; 0.13 μM): 1752.83; Telomerase activity Average (telomerase; 0.25 μM): 5523.83; Telomerase activity Replicate 1 (telomerase; 0.25 μM): 5415.83; Telomerase activity Replicate 2 (telomerase; 0.25 μM): 5631.83; Telomerase activity Average (telomerase; 0.50 μM): 7501.33; Telomerase activity Replicate 1 (telomerase; 0.50 μM): 7834.83; Telomerase activity Replicate 2 (telomerase; 0.50 μM): 7167.83; Telomerase activity Average (telomerase; 1.00 μM): 15556.33; Telomerase activity Replicate 1 (telomerase; 1.00 μM): 15590.83; Telomerase activity Replicate 2 (telomerase; 1.00 μM): 15521.83; Telomerase activity Average (telomerase; 3.00 μM): 21909.33; Telomerase activity Replicate 1 (telomerase; 3.00 μM): 20995.83; Telomerase activity Replicate 2 (telomerase; 3.00 μM): 22822.83; EC50 (telomerase; half-maximal telomerase activation, human cells): 790 nM; EC50 (telomerase activation) (telomerase; same value in mass units): (0.39 μg/mL

What does the source list for COC(=O)CCC(=O)NC(C)C(=O)NC(C)C(=O)N1CCCC1C(=O)NC(C(=O)CCl)C(C)C (stereo not drawn) [N-methoxysuccinyl-Ala-Ala-Pro-Val-chloromethyl ketone] (MeOSuc-AAPV-CH2Cl; configuration not given here)?
Concentration inducing the maximum inhibition (elastase) (elastase): 250 µM; inhibition at 250 µM (elastase; Conc. 250.00 uM, read-out: Inhibition (%) Average): 87.7%; inhibition at 250 µM (elastase; Conc. 250.00 uM, read-out: Inhibition (%) Relicate 1): 87.6%; inhibition at 250 µM (elastase; Conc. 250.00 uM, read-out: Inhibition (%) Replicate 2): 87.8%; inhibition at 0.12 µM (elastase; [2]): 10.3%; inhibition at 0.24 µM (elastase; [2]): 18.2%; inhibition at 0.49 µM (elastase; [2]): 30.3%; inhibition at 0.98 µM (elastase; [2]): 45.7%; inhibition at 1.95 µM (elastase; [2]): 59.2%; inhibition at 3.91 µM (elastase; [2]): 68.7%; inhibition at 7.81 µM (elastase; [2]): 76.3%; inhibition at 15.63 µM (elastase; [2]): 81%; inhibition at 31.25 µM (elastase; [2]): 84.4%; inhibition at 62.5 µM (elastase; [2]): 86.1%; inhibition at 125 µM (elastase; [2]): 87.2%; inhibition at 0.12 µM (elastase; [3]): 10.1%; inhibition at 0.24 µM (elastase; [3]): 18.3%; inhibition at 0.49 µM (elastase; [3]): 29.9%; inhibition at 0.98 µM (elastase; [3]): 45.3%; inhibition at 1.95 µM (elastase; [3]): 58.8%; inhibition at 3.91 µM (elastase; [3]): 68.5%; inhibition at 7.81 µM (elastase; [3]): 76.2%; inhibition at 15.63 µM (elastase; [3]): 81.1%; inhibition at 31.25 µM (elastase; [3]): 84.3%; inhibition at 62.5 µM (elastase; [3]): 86%; inhibition at 125 µM (elastase; [3]): 87.1%; inhibition at 0.12 µM (elastase; [4]): 10.5%; inhibition at 0.24 µM (elastase; [4]): 18.2%; inhibition at 0.49 µM (elastase; [4]): 30.6%; inhibition at 0.98 µM (elastase; [4]): 46.1%; inhibition at 1.95 µM (elastase; [4]): 59.6%; inhibition at 3.91 µM (elastase; [4]): 69%; inhibition at 7.81 µM (elastase; [4]): 76.3%; inhibition at 15.63 µM (elastase; [4]): 80.8%; inhibition at 31.25 µM (elastase; [4]): 84.5%; inhibition at 62.5 µM (elastase; [4]): 86.2%; inhibition at 125 µM (elastase; [4]): 87.3%; inhibition at 250 µM (elastase; read-out: Maximum inhibition achieved (elastase)): 87.7%

What does the source list for CCN(CC)CCCC(C)Nc1ccnc2cc(Cl)ccc12 (stereo not drawn) [chloroquine, Chloroquine]?
Concentration inducing the maximum inhibition [1]: 10 µM; EC50 [1]: 0.74 µg/mL and 1.43 µM; EC50 ([1]; 72 h, read-out: EC50 (melanin production inhibition)): 1430 nM; inhibition at 10 µM ([1]; read-out: Maximum inhibition achieved): 88.1%; inhibition at 0.31 µM [1, 5]: 0.92%; inhibition at 0.63 µM [1, 5]: 16.1%; inhibition at 1.25 µM [1, 5]: 34.3%; inhibition at 2.5 µM [1, 5]: 76.1%; inhibition at 5 µM [1, 5]: 83.1%; inhibition at 10 µM [1, 5]: 88.1%; inhibition at 0.31 µM [1, 6]: 1.77%; inhibition at 0.63 µM [1, 6]: 15.5%; inhibition at 1.25 µM [1, 6]: 36.5%; inhibition at 2.5 µM [1, 6]: 76.6%; inhibition at 5 µM [1, 6]: 79.8%; inhibition at 10 µM [1, 6]: 85.7%; inhibition at 0.31 µM [1, 7]: 0.06%; inhibition at 0.63 µM [1, 7]: 16.7%; inhibition at 1.25 µM [1, 7]: 32.1%; inhibition at 2.5 µM [1, 7]: 75.6%; inhibition at 5 µM [1, 7]: 86.4%; inhibition at 10 µM [1, 7]: 90.5%
